Results: patent US20170037008A1, “PHENYL BENZYL ETHER DERIVATIVE AND PREPARATION METHOD AND APPLICATION THEREOF” (BEIJING ZHIBO BIO-MEDICAL TECHNOLOGY CO., LTD, priority 2013, published 2017)
Like-named read-outs stand apart in the source and are kept apart here. Values belong to the compound of their own block, whether it stands above or below them.

What was measured:
Aβ1-42 aggregates = target: T1, Aβ1-42 aggregates (Homo sapiens, UniProt P05067); assay: In-vitro competitive binding experiments (Ki determination) with Aβ1-42 aggregates; conditions: for affinity with the Aβ1-42 aggregates compared with IMPY and PIB: competitive binding experiments
T1 construct: Preparing receptor Aβ1-42 proteins according to the existing method
Procedure: Binding reaction occurs between Aβ1-42 aggregate proteins with certain concentration and radioactive ligands [^125I] […] 4, the compounds are separated after balancing, and the inhibition constant (Ki) is calculated by determining radioactivity.
(1) Preparing 4 l of PBS (0.2M) buffer solution with pH=7.4;
(2) Preparing radioligand [^125]
(3) Preparing the compounds to be determined into 10^−3 to 10^−9 mol/L continuously diluted ethanol solution;
(4) Preparing receptor Aβ1-42 proteins according to the existing method and diluting the proteins into 30 nM water solution;
(5) Soaking a glass fiber filter membrane in PBS solution containing 0.1% (volume fraction) polyethyleneimine for 0.5 h;
(6) Respectively adding 100 μl of solution of compounds with different concentration and to be determined, 100 μl of [^125I]
(7) Oscillating and incubating for 2 h in 37° C. constant-temperature water bath;
(8) Collecting reaction liquid by using a multi-head cell collector, and washing the reaction liquid for three times by using PBS, 3 ml per time;
(9) Measuring and counting by using a γ counter; and […]

logD of labeled ligands = format: physicochemical
[1] = Biological distribution in bodies of normal mice; format: in vivo, mice (ICR); conditions: caudal vein injection
From the text: Through in-vivo distribution experiments, pharmacokinetic features, especially initial bran intake and brain removal situations of ^18F or ^125I labeled compounds in the bodies of mice are studied. […] Data are expressed in radioactive percentage dosage per organ (% ID/organ) and radioactive percentage dosage per gram of organ (% ID/g).

[2] = competition against radioligand [^125I] IMPY, Aβ1-42 aggregates, 37° C., 2 h

T1 sequence (P05067 672-713 limits assumed): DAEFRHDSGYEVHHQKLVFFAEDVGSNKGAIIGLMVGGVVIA

SMILES: CN(C)c1ccc(OCc2ccc(OCCF)cc2)cc1 [Compound 47, 4-(4-(2-fluoroethoxy)benzyloxy)-N,N-dimethylaniline]
- Ki (Aβ1-42 aggregates): 23 ± 5.3 nM
- affinity with the Aβ1-42 aggregates compared with IMPY and PIB (Aβ1-42 aggregates): higher than that of the known compounds IMPY and PIB

SMILES: COc1ccc(COc2ccc(OCCOCCOCC[18F])cc2)cc1 [[^18F] 53b]
- logD (logD of labeled ligands): [^18F] 53b (logD = 3.04 ± 0.04)
- Blood ([1]; 2 min): 3.95 ± 0.34 % ID/g
- Bone ([1]; 2 min): 1.36 ± 0.35 % ID/organ
- Brain ([1]; 2 min): 9.71 ± 1.31 % ID/g
- Blood ([1]; 10 min): 4.14 ± 0.91 % ID/g
- Bone ([1]; 10 min): 1.22 ± 0.42 % ID/organ
- Brain ([1]; 10 min): 2.52 ± 0.20 % ID/g
- Blood ([1]; 30 min): 3.40 ± 0.25 % ID/g
- Bone ([1]; 30 min): 1.39 ± 0.54 % ID/organ
- Brain ([1]; 30 min): 1.39 ± 0.10 % ID/g
- Blood ([1]; 60 min): 2.36 ± 0.66 % ID/g
- Bone ([1]; 60 min): 1.52 ± 0.27 % ID/organ
- Brain ([1]; 60 min): 1.07 ± 0.10 % ID/g

SMILES: COc1ccc(OCc2ccc([125I])cc2)cc1 [[^125I]4]
- logD (logD of labeled ligands): [^125I]4 (logD = 4.00 ± 0.08)
- Blood ([1]; 2 min): 3.03 ± 0.54 % ID/g
- Brain ([1]; 2 min): 6.18 ± 0.99 % ID/g
- Thyroid ([1]; 2 min): 0.14 ± 0.04 % ID/organ
- Blood ([1]; 10 min): 3.32 ± 0.65 % ID/g
- Brain ([1]; 10 min): 3.54 ± 0.35 % ID/g
- Thyroid ([1]; 10 min): 0.12 ± 0.04 % ID/organ
- Blood ([1]; 30 min): 2.56 ± 0.93 % ID/g
- Brain ([1]; 30 min): 0.88 ± 0.15 % ID/g
- Thyroid ([1]; 30 min): 0.08 ± 0.01 % ID/organ
- Blood ([1]; 60 min): 1.70 ± 0.50 % ID/g
- Brain ([1]; 60 min): 0.38 ± 0.05 % ID/g
- Thyroid ([1]; 60 min): 0.11 ± 0.02 % ID/organ

SMILES: FCCOc1ccc(COc2cccnc2I)cc1 [Compound 65]
- Ki (Aβ1-42 aggregates; [2]): 2080 ± 458 nM

SMILES: FCCOc1ccc(OCc2ccc([125I])cc2)cc1 [[^125I]31a]
- logD (logD of labeled ligands): [^125I]31a (logD = 3.96 ± 0.22)
- Blood ([1]; 2 min): 5.03 ± 0.20 % ID/g
- Brain ([1]; 2 min): 7.04 ± 0.89 % ID/g
- Thyroid ([1]; 2 min): 0.12 ± 0.02 % ID/organ
- Blood ([1]; 10 min): 3.03 ± 0.48 % ID/g
- Brain ([1]; 10 min): 2.73 ± 0.25 % ID/g
- Thyroid ([1]; 10 min): 0.09 ± 0.02 % ID/organ
- Blood ([1]; 30 min): 2.17 ± 0.31 % ID/g
- Brain ([1]; 30 min): 1.05 ± 0.22 % ID/g
- Thyroid ([1]; 30 min): 0.12 ± 0.01 % ID/organ
- Brain ([1]; 60 min): 0.55 ± 0.11 % ID/g
- Thyroid ([1]; 60 min): 0.16 ± 0.03 % ID/organ

SMILES: CN(C)c1ccc(-c2cn3cc([125I])ccc3n2)cc1 [[^125I]IMPY, reference compound]
- Blood ([1]; 2 min): 3.85 ± 0.53 % ID/g
- Brain ([1]; 2 min): 5.05 ± 0.38 % ID/g
- Thyroid ([1]; 2 min): 0.12 ± 0.05 % ID/organ
- Blood ([1]; 10 min): 2.81 ± 0.33 % ID/g
- Brain ([1]; 10 min): 1.80 ± 0.12 % ID/g
- Thyroid ([1]; 10 min): 0.09 ± 0.03 % ID/organ
- Blood ([1]; 30 min): 1.50 ± 0.20 % ID/g
- Brain ([1]; 30 min): 0.67 ± 0.15 % ID/g
- Thyroid ([1]; 30 min): 0.22 ± 0.08 % ID/organ
- Blood ([1]; 60 min): 1.03 ± 0.10 % ID/g
- Brain ([1]; 60 min): 0.45 ± 0.07 % ID/g
- Thyroid ([1]; 60 min): 0.30 ± 0.09 % ID/organ

SMILES: O=c1ccc(I)cn1Cc1ccc(I)cc1 [Compound 58]
- Ki (Aβ1-42 aggregates; [2]): 1060 nM

Second part, led by results:

- Ki (Aβ1-42 aggregates): 127 ± 18.2 nM
SMILES: Fc1ccc(OCc2ccc(I)cc2)cc1 [Compound 10, 1-fluoro-4-(4-iodobenzyloxy) benzene]

- Ki (Aβ1-42 aggregates): 139 ± 20.9 nM
SMILES: CC(C)(C)c1ccc(OCc2ccc(I)cc2)cc1 [Compound 15, 1-tert-butyl-4-(4-iodobenzyloxy) benzene]

- Ki (Aβ1-42 aggregates): 14.1 ± 1.2 nM
SMILES: Brc1ccc(OCc2ccc(I)cc2)cc1 [Compound 12, 1-bromo-4-(4-iodobenzyloxy) benzene]
- affinity with the Aβ1-42 aggregates compared with IMPY and PIB (Aβ1-42 aggregates): higher than that of the known compounds IMPY and PIB

- Ki (Aβ1-42 aggregates): 702 ± 92.4 nM
SMILES: CNc1cccc(OCc2ccc(I)cc2)c1 [Compound 20, 3-(4-iodobenzyloxy)-N-methylaniline]

- Ki (Aβ1-42 aggregates): 1060 ± 104 nM
SMILES: CN(C)c1cccc(OCc2ccc(I)cc2)c1 [Compound 23, 3-(4-iodobenzyloxy)-N,N-dimethylaniline]

- Ki (Aβ1-42 aggregates): 28.7 ± 8 nM
SMILES: COc1ccc(OCc2ccc(I)cc2)cc1 [Compound 4, 1-iodo-4-((4-methoxyphenoxy)methyl) benzene]
- affinity with the Aβ1-42 aggregates compared with IMPY and PIB (Aβ1-42 aggregates): higher than that of the known compounds IMPY and PIB

- Ki (Aβ1-42 aggregates): 627 ± 129 nM
SMILES: COc1ccc(SCc2ccc(I)cc2)cc1 [Compound 25, (4-iodobenzyl) (4-methoxyphenyl) sulfane]

- Ki (Aβ1-42 aggregates): 22.3 ± 2.6 nM
SMILES: Clc1ccc(OCc2ccc(I)cc2)cc1 [Compound 11, 1-chloro-4-(4-iodobenzyloxy) benzene]
- affinity with the Aβ1-42 aggregates compared with IMPY and PIB (Aβ1-42 aggregates): higher than that of the known compounds IMPY and PIB

- Ki (Aβ1-42 aggregates): 1810 ± 189 nM
SMILES: Nc1cccc(OCc2ccc(I)cc2)c1 [Compound 17, 3-(4-iodobenzyloxy) aniline]

- Ki (Aβ1-42 aggregates): 20.9 ± 1.8 nM
SMILES: CN(C)c1ccc(OCc2ccc(I)cc2)cc1 [Compound 22, 4-(4-iodobenzyloxy)-N,N-dimethylaniline]
- affinity with the Aβ1-42 aggregates compared with IMPY and PIB (Aβ1-42 aggregates): higher than that of the known compounds IMPY and PIB

- Ki (Aβ1-42 aggregates): 24.1 ± 8.8 nM
SMILES: FCCOc1ccc(OCc2ccc(I)cc2)cc1 [Compound 31a, 1-(2-fluoroethoxy)-4-((4-iodobenzyl)oxy) benzene]
- affinity with the Aβ1-42 aggregates compared with IMPY and PIB (Aβ1-42 aggregates): higher than that of the known compounds IMPY and PIB
